The subject of one data set is murine leukaemia L1210. The experiment in a line: In vitro cytotoxicity, Microculture Tetrazolium Assay, L1210. The format is cell-based. The conditions noted are these: L1210 cells, 48 hours exposure, inhibition of proliferation. How it is done: (§1) The murine leukaemia L1210 and the human colon carcinomas HCT116 and HT29 were used in vitro. The cells are cultured in RPMI 1640 complete culture medium containing 10% foetal calf serum, 2 mM glutamine, 50 units/ml of penicillin, 50 μg/ml of streptomycin and 10 mM Hepes, pH=7.4. The cells are distributed on microplates and are exposed to the cytotoxic compounds for 4 doubling times, that is to say 48 hours (L1210) or 96 hours (HCT116 and HT29). The number of viable cells is then quantified by a colorimetric assay, the Microculture Tetrazolium Assay (J. Carmichael et al., Cancer Res.; 47, 936-942, (1987)). The results are expressed in terms of the IC50 (the concentration of cytotoxic agent which inhibits proliferation of the treated cells by 50%).

Data set [1] deals with human colon carcinoma HCT116. The experiment in a line: In vitro cytotoxicity, Microculture Tetrazolium Assay, HCT116. Conditions: HCT116 cells, 96 hours exposure, inhibition of proliferation. The format is cell-based. The method, then: as §1
The subject of data set [2] is human colon carcinoma HT29. The experiment in a line: In vitro cytotoxicity, Microculture Tetrazolium Assay, HT29. The format is cell-based. The conditions noted are these: HT29 cells, 96 hours exposure, inhibition of proliferation. How it is done:
as §1

The nature of data set [3]: In vivo toxicity, maximum tolerated dose. Conditions: nude (bab/c), mouse, in vivo; nude mice, intravenous administration once per week for 3 weeks; largest dose causing neither death nor weight loss of more than 20%. How it is done: (§2) The compounds are formulated in a Tween/water mixture and administered by the intravenous (i.v.) route (administration over three weeks at the rate of once per week, the injection volume being 0.2 ml/mouse with increasing doses of compounds of 6.25, 12.5, 25 and 50 mg/kg) to nude mice (bab/c supplied by Iffa Credo) weighing about 20 g. The maximum tolerated dose (MTD) is the largest dose causing neither death nor a weight loss of more than 20%.

Another data set concerns nude mice. The data set can be described thus: In vivo toxicity, maximum tolerated dose. Conditions: i.v. once per week for 3 weeks, compared with compound of Preparation 2. The method, then: as §2
Another data set relates to HCT116. The data set can be described thus: In vivo activity with respect to HCT116. Conditions: compared with non-esterified homologue (compound of Preparation 2).

Structures can show the parent of a compound that is named as a salt.

By IC50 is commonly meant the concentration at which inhibition is half-maximal. The low end stands for greater potency in that assay, the high end for weaker potency in that assay. Consider `CCC1(OC(=O)CCN2CCc3cc(OC)c(OC)cc3C2)C(=O)Cc2c1cc1n(c2=O)Cc2c-1nc1cc3c(cc1c2C1CCC1)OCO3` (stereo not drawn) [Example 24, 7-Ethyl-2,3-methylenedioxy-13-cyclobutyl-8,10-dioxo-8,9,10,12-tetrahydro-7H-cyclopenta[6,7]indolizino[1,2-b]quinolin-7-yl 3-[(6,7-dimethoxy-3,4-dihydroisoquinolin-2(1H)-yl]propanoate hydrochloride], for which the figures for the half-maximal inhibitory concentration (IC50) (with murine leukaemia L1210; in data set [1]; in data set [2]) were 7.9 nM, 0.7 nM and 2.6 nM, respectively.
The term MTD denotes the largest dose that counted as tolerated. Read a high MTD as a wide tolerated range. As to `CCC1(OC(=O)CCN2CCCCC2)C(=O)Cc2c1cc1n(c2=O)Cc2c-1nc1cc3c(cc1c2C1CCC1)OCO3.Cl` (stereo not drawn) [Example 2, 7-Ethyl-2,3-methylenedioxy-13-cyclobutyl-8,10-dioxo-8,9,10,12-tetrahydro-7H-cyclopenta[6,7]indolizino[1,2-b]quinolin-7-yl 3-piperidinopropanoate hydrochloride], the 50% inhibitory concentration (IC50) was found to be 1.5 nM in data set [1] (Homo sapiens, HCT-116) and 3.7 nM in data set [2] (Homo sapiens, HT-29). Besides, the MTD at 3 weeks in data set [3] is 25 mg/kg. Moreover, the “toxicity relative to the non-esterified homologue (compound of Preparation 2)” value in the data set on nude mice is given as “two times less toxic”. The “in vivo activity with respect to HCT116 compared with compound of Preparation 2” value in the data set with HCT116 is recorded as “same in vivo activity”.
In the case of `CCC1(OC(=O)CCN2CC[C@H]3CCCC[C@@H]3C2)C(=O)Cc2c1cc1n(c2=O)Cc2c-1nc1cc3c(cc1c2C1CCC1)OCO3` (stereo partly drawn) [Example 23, 7-Ethyl-2,3-methylenedioxy-13-cyclobutyl-8,10-dioxo-8,9,10,12-tetrahydro-7H-cyclopenta[6,7]indolizino[1,2-b]quinolin-7-yl 3-[(4aR,8aS)-octahydroisoquinolin-2(1H)-yl]propanoate hydrochloride], the 50% inhibitory concentration (IC50) with murine leukaemia L1210 (Mus musculus) worked out at 7.3 nM; in data set [1] (Homo sapiens, HCT-116) it was 1.1 nM; in data set [2] (Homo sapiens, HT-29), 2.4 nM.
Take `CCC1(OC(=O)CCN2CCCCC2)C(=O)Cc2c1cc1n(c2=O)Cc2c-1nc1cc3c(cc1c2C)OCO3` (stereo not drawn) [Example 1, 7-Ethyl-2,3-methylenedioxy-13-methyl-8,10-dioxo-8,9,10,12-tetrahydro-7H-cyclopenta[6,7]indolizino[1,2-b]quinolin-7-yl 3-piperidinopropanoate hydrochloride]: in the data set with murine leukaemia L1210 (Mus musculus), the IC50 came to 4.2 nM.

(Values after patent US20100168150A1, “Camptothecin Analogue Compounds, a Process for Their Preparation and Pharmaceutical Compositions Containing Them” (Les Laboratoires Servier, priority 2005, published 2010).)
